Measured values from ChEMBL document CHEMBL5370608, “Selective and Bioavailable HDAC6 2-(Difluoromethyl)-1,3,4-oxadiazole Substrate Inhibitors and Modeling of Their Bioactivation Mechanism” (J Med Chem, 2023).
Active and inactive are the calls of the source. No cut-off for these calls is given here.

What was measured:
[1] = Metabolic stability in human hepatocytes assessed as intrinsic clearance at 1 uM measured per 10^6 cells incubated at 2 to 60 mins by LC-MS/MS analysis; type: ADME, cell-based, Hepatocyte; conditions: time 2-60 min, read-out: CLH
[2] = target: T1, Protein deacetylase HDAC6 (Mus musculus, UniProt Q9Z2V5); assay: Inhibition of HDAC6 in mouse LA-4 cells assessed as deacetylation of acetylated alpha-tubulin level incubated for 24 hrs by Western blot analysis; type: cell-based
T1 sequence (Q9Z2V5 whole entry): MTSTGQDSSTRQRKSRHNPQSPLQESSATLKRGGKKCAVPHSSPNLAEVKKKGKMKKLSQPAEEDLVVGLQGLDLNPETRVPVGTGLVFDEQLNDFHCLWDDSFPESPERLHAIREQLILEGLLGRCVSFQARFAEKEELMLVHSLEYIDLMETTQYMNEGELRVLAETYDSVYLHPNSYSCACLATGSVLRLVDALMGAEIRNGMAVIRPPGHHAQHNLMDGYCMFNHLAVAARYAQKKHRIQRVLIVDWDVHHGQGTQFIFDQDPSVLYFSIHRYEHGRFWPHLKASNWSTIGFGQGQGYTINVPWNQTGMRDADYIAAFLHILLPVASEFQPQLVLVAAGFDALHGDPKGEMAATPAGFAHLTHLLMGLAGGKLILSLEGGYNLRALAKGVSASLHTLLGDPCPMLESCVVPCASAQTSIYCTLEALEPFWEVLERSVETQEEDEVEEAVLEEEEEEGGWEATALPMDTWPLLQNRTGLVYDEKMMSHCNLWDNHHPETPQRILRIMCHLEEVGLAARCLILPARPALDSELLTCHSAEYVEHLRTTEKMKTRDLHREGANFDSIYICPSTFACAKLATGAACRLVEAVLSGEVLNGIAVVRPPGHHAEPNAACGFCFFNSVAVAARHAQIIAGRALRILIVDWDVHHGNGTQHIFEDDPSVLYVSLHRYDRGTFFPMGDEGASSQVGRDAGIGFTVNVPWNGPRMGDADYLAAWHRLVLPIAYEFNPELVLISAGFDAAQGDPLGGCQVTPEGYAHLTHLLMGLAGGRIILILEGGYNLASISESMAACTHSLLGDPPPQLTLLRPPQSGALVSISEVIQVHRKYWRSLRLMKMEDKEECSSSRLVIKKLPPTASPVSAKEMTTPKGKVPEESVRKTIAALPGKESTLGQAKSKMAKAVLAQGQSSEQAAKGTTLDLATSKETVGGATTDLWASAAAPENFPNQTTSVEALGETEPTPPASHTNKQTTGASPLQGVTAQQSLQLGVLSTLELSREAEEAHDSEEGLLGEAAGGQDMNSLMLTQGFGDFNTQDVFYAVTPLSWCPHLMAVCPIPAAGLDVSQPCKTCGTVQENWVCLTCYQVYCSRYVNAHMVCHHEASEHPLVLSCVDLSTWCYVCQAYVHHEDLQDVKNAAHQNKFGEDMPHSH

[3] = Clearance in C57/BI mouse at 2 mg/kg, iv measured upto 24 hrs by LC-MS/MS analysis; type: ADME, organism-based; conditions: in vivo
[4] = Volume of distribution at steady state in C57/BI mouse at 10 mg/kg, po or 2 mg/kg, iv measured upto 24 hrs by LC-MS/MS analysis; type: ADME, organism-based; conditions: in vivo
[5] = Metabolic stability in mouse hepatocytes assessed as intrinsic clearance at 1 uM measured per 10^6 cells incubated at 2 to 60 mins by LC-MS/MS analysis; type: ADME, cell-based, Hepatocyte; conditions: time 2-60 min, read-out: CLH
[6] = Plasma protein binding in rat assessed as unbound fraction; type: ADME, cell-free
[7] = target: T2, Protein deacetylase HDAC6 (Homo sapiens, UniProt Q9UBN7); assay: Inhibition of HDAC6 (unknown origin) incubated for 20 hrs
T2 sequence (Q9UBN7 whole entry): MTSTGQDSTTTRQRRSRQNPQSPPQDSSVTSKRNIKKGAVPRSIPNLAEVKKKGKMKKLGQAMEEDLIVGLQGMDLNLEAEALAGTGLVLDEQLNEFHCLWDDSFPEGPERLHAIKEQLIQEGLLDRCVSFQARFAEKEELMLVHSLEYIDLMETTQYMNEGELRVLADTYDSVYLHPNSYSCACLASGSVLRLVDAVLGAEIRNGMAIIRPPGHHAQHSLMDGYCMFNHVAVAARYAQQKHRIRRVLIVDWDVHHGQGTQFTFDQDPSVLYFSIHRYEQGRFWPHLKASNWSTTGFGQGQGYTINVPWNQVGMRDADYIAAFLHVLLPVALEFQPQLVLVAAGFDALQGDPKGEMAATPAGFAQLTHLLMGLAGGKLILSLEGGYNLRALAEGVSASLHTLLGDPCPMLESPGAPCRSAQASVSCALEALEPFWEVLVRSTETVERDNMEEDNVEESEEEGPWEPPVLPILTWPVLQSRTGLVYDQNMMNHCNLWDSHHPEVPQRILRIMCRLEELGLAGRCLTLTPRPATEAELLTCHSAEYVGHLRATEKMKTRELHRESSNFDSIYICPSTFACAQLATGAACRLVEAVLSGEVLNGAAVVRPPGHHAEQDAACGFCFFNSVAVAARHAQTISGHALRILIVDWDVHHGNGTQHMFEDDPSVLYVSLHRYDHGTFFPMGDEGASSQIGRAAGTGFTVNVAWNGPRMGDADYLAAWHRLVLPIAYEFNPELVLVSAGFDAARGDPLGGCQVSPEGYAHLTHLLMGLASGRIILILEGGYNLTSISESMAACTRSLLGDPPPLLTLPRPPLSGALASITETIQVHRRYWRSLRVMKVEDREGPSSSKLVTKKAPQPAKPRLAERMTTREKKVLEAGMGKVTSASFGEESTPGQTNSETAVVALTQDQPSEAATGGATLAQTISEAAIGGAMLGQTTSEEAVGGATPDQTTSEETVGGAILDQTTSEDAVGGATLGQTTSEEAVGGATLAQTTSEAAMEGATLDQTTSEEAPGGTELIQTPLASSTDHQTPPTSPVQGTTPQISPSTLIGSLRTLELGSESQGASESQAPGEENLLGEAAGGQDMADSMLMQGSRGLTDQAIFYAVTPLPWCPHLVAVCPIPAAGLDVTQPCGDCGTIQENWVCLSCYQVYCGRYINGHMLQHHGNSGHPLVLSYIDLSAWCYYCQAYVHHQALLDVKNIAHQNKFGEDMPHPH

[8] = Volume of distribution at steady state in C57/BI mouse at 1 mg/kg, po or 0.5 mg/kg, iv measured upto 24 hrs by LC-MS/MS analysis; type: ADME, organism-based; conditions: in vivo
[9] = Oral bioavailability in Wistar Han rat at 1 mg/kg measured upto 24 hrs by LC-MS/MS analysis; type: ADME, organism-based; conditions: in vivo
[10] = target: 3',5'-cyclic-AMP phosphodiesterase 4D (Homo sapiens) (UniProt Q08499); assay: Inhibition of PDE4D (unknown origin) at 64 uM relative to control
[11] = AUC (0 to infinity) in Wistar Han rat at 1 mg/kg, po measured upto 24 hrs by LC-MS/MS analysis; type: ADME, organism-based; design: time < 24 hrs, dose 1 mg/kg, route po; conditions: in vivo
[12] = AUC (0 to infinity) in C57/BI mouse at 1 mg/kg, po measured upto 24 hrs by LC-MS/MS analysis; type: ADME, organism-based; design: time < 24 hrs, dose 1 mg/kg, route po; conditions: in vivo

3',5'-cyclic-AMP phosphodiesterase 4D (Homo sapiens), sequence (Q08499 whole entry): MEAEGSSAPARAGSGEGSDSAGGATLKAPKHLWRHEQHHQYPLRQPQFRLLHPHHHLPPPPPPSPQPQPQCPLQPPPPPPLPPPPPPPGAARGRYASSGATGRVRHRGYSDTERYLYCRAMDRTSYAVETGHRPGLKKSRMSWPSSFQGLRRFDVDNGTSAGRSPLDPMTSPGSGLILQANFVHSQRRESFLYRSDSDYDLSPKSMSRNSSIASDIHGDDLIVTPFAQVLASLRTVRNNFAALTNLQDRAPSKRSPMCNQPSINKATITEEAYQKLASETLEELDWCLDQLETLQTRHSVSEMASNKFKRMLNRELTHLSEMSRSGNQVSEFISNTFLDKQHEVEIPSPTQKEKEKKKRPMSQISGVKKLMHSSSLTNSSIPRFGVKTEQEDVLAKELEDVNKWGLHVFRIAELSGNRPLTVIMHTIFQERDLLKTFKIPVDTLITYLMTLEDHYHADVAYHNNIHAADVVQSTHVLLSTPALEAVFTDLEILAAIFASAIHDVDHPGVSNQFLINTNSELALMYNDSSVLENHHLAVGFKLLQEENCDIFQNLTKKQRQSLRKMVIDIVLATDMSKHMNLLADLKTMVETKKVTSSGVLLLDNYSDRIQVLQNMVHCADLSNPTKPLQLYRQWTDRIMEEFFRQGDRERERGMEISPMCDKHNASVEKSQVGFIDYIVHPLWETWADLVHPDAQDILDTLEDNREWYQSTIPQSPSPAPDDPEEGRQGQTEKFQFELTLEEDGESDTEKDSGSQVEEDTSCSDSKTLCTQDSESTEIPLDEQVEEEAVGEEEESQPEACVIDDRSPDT

hepatocyte CLint at 1 µM [1]	IC50 [2]	clearance [3]	Vdss [4]	hepatocyte CLint at 1 µM [5]	fraction unbound [6]	IC50 [7]	Vdss [8]	bioavailability [9]	inhibition [10]	AUC(0-inf) [11]	AUC(0-inf) [12]	SMILES
5.1 µL/min/1e6 cells	398 nM	140 mL/min/kg	1.6 L/kg	130 µL/min/1e6 cells								O=C(NO)c1cnc(NC2(c3ccccc3)CCC(F)(F)CC2)nc1
< 1 µL/min/1e6 cells	1000 nM			< 1 µL/min/1e6 cells	0.38	1 nM	0.9 L/kg	100%	Active	15 µM·h	21 µM·h	FC(F)c1nnc(-c2ccc(Cn3nnc(-c4ccccn4)n3)nc2)o1
